This is an account of results in patent US10130590B2, “Methods of treating cancer with atovaquone-related compounds” (DANA-FARBER CANCER INSTITUTE, INC., priority 2013, dated 2018).

In series [1] the test system is gp130. Description: Flow cytometry of cell-surface gp130. Format: cell-based. The procedure: Annexin V/PI staining was performed using Annexin V:FITC Apoptosis Detection Kit I (BD Biosciences). Staining for cell cycle analysis was performed as previously described (267). Staining for cell-surface receptors was performed in 50 μl PBS+2% FBS with 2 μl antibody to IL6R (BioLegend #352803) or 5 μl antibody to gp130 (BD Biosciences #555757) for 20 minutes on ice in the dark. Cells were washed twice, then resuspended in 300 μl of the same buffer. Samples were analyzed on a BD FACSCanto II machine. Transfection and siRNA Cells were reverse-transfected using Lipofectamine RNAiMAX (Invitrogen); the culture medium was changed 24 hours later. Control siRNA (D-001210-02) and REDD1 siRNA (M-010855-01) were from Thermo Scientific Dharmacon.
Since atovaquone reduced gp130 expression at the cell surface, it was asked whether this effect was accompanied by reduced total gp130 in the cell. To address this question, a time course of atovaquone treatment was performed and total cellular gp130 was measured by Western blotting in U266 cells treated with atovaquone at 20 μM. […] Thus, it was surmised that atovaquone also rapidly downregulates cell-surface gp130, paralleling STAT3 inhibition and preceding the decrease in total gp130. […] Loss of cell-surface gp130 may be due to decreased entry into the plasma membrane or increased internalization. In either case, the decrease in total gp130 observed at longer time points is likely due to degradation of relatively unstable intracellular gp130.
(Flow cytometry measures light scatter and fluorescence of single cells or particles in a stream.)

Series [2] relates to gp130. The series can be described thus: Western blot of total gp130. Format: cell-based. The procedure:
Western blotting was performed as previously described (Battle T E, Arbiser J, & Frank D A (2005) The natural product honokiol induces caspase dependent apoptosis in B-cell chronic lymphocytic leukemia (B-CLL) cells. Blood 106(2):690-697). Antibodies to phospho-MAPK (9101), total MAPK (9102), phospho-Y705 STAT3 (9131), phospho-S6 (2215), total S6 (2217), phospho-4E-BP1 (9451), total 4E-BP1 (9644), total RSK (9355), phospho-S6K (9234, 85 used at 1:5000), total S6K (2708), phospho-eIF2α (9721, used at 1:1000), total eIF2α (5324), ATF4 (11815, used at 1:1000), PDGFRβ (3169), IGF1Rβ (9750), EGFR (2232), and HER2 (2242) were from Cell Signaling Technology. Phospho-RSK antibody was from R&D (AF889). Antibodies to total STAT3 (sc-482) and gp130 (sc-656, used at 1:1000) were from Santa Cruz Biotechnology. […] Cell viability was measured as ATP-dependent luminescence by Cell Titer Glo (Promega).
Since atovaquone reduced gp130 expression at the cell surface, it was asked whether this effect was accompanied by reduced total gp130 in the cell. To address this question, a time course of atovaquone treatment was performed and total cellular gp130 was measured by Western blotting in U266 cells treated with atovaquone at 20 μM. […]
MEF, MDA-MB-468, and SKBR3 cells were treated with atovaquone (25 μM) for 6 or 12 hours, then analyzed by Western blot for expression of gp130 and various other receptors. […]
A general note: Immunoblotting shows a protein as a band on a membrane.

The conditions of series [3]: cited from earlier work.
The subject of the next series is STAT1. The series can be described thus: STAT1 phosphorylation in cancer cells. The class given is cell-based. From the text: It has been discovered, using an unbiased gene expression-based approach, that atovaquone is a novel STAT3 inhibitor. Atovaquone acts by diminishing cell-surface gp130 expression and STAT3 tyrosine phosphorylation. As a consequence, critical STAT3 target genes mediating survival and proliferation are reduced, such as survivin, Bcl-2 family members, and cyclin D1. Moreover, atovaquone inhibits the viability of STAT3-dependent cancer cells by inducing apoptosis and disrupting cell cycle progression. […] Since STAT5 activation is crucial to cancer pathogenesis caused by JAK2-V617F, the additional inhibition of STAT5 in this context is a desirable effect of atovaquone. […] Because the effects of atovaquone on STAT activation are restricted to gp130-dependent signaling, atovaquone inhibits STATs more selectively than direct pharmacological JAK inhibition. […] At the same time, the actions of atovaquone extend to all cytokines that signal through gp130, including LIF and OSM, thereby exerting broader effects than therapies specifically directed against IL-6 or IL-6 receptor, such as monoclonal antibodies. This is also advantageous, since oncogenic effects of LIF and OSM have been reported.

Where two headings read alike, the source gives them in different places.

As to `O=C1C(O)=C([C@H]2CC[C@H](c3ccc(Cl)cc3)CC2)C(=O)c2ccccc21` [atovaquone, trans-2-[4-(4-chlorophenyl)cyclohexyl]-3-hydroxy-1,4-naphthalenedione], the “cell surface gp130 in INA-6 and HEL cells” value with gp130 [1] (INA-6 20 μM 4 hours, HEL 25 μM 6 or 16 hours) is given as “induced downregulation of cell surface gp130”. Besides, the “cell-surface expression of gp130, flow cytometric time course” value in the series with gp130 [1] (U266, 20 μM) is recorded as “rapidly inhibits the cell-surface expression of gp130”. In addition, the “cell-surface expression of gp130” value in the series on gp130 [1] (U266, 2.5 hours, atovaquone 20 μM, JAK inhibitor 1 1 μM, brefeldin A 3 μg/ml) is listed as “substantially downregulated the cell-surface expression of gp130”. Further, in the series on gp130 [2] (MEF, SKBR3, MDA-MB-468, 25 μM, 6 or 12 hours), the “total gp130 in other cell lines” value is “induced loss of total gp130 after prolonged treatment”. Moreover, the “total cellular gp130, time course” value with gp130 [2] (U266, 20 μM) is listed as “not reduced except at much longer time points”. Also, the “plasma concentrations achieved in patients” value in series [3] (patients taking standard doses) was 40 to 80 µM; in series [3] (patients), 15000 to 30000 ng/mL. Besides, the “mutant JAK2-dependent phosphorylation of STAT1” value in the series on STAT1 (HEL cells) is recorded as “inhibited”. Moreover, the “IL-6-dependent phosphorylation of STAT1” value in the series on STAT1 (INA-6 and U266 cells) is reported as “inhibited IL-6-dependent phosphorylation of STAT1”.
